System: DEN-1 virus strain FGA/NA d1d
Assay type: cell-based
Settings: THP/DC-SIGN cells, m.o.i. 5 AP61FFU/cell
Procedure: Prior to infection, THP-1/DC/SIGN cells were incubated with either Mab 9D12 (dilution 1:50), Mab BD12.5 (20 μg/ml), Mab 1B10.2.6 (20 μg/ml), EDTA (5 mM), mannan (20 μg/ml), or mock-treated (control). Treated cells were infected with DEN-1 virus strain FGA/NA dld (5 AP61FFU/cell) in the presence of reagents for 2 hrs. Viral antigens were detected by indirect immunofluorescence as described in the legend of FIG. 1. The percentages of infected cells 48 h post-infection are indicated. Values represent the mean of triplicate assays±SD.
Cells were washed once with RPMI 1640, incubated with highly purified virus in RPMI 1640 supplemented with 0.2% bovine serum albumine (BSA, pH 7.5) (Sigma) for 2 hrs at 37° C. and placed into fresh media supplemented with 2% FCS, 2 mM L-glutamine and antibiotics Peni/Strepto at 37° C. for 40 hrs.
Adherent cells were incubated either with EDTA (5 mM), mannan (20 μg/ml), anti-DC-SIGN Mab 1B10.2.6 (20 μg/mi), anti-LMCV Mab 12.5 (isotype control, 20 μg/ml), or DEN E-specific Mab 9D12 (dilution 1:50) in RPMI 1640 supplemented with 0.2% BSA for 20 min at room temperature before binding the virus for 2 hrs. Two hours after infection, cells were washed with RPMI 1640 and incubated with RMPI 1640 2% FCS for 40 hrs. […]

O=C(O)CN(CCN(CC(=O)O)CC(=O)O)CC(=O)O [EDTA]
infectivity of DEN-1 virus after preincubation of cells (EDTA 5 mM): essentially abolished

mannan
reduction of FGA/NA d1d infectivity (mannan 20 μg/ml): 75%

From patent US20060134100A1, “Dc-sign blockers and their use for preventing or treating viral infections” (priority 2002, published 2006)
